Assay results taken from US20240168041A1, “SYSTEMS AND METHODS ENABLING PH[…] TESTING OF PATCH-CLAMP SAMPLES” (priority 2021, published 2024).
“And” between values parts separate entries of the source, which are not always exact repeats. Equal entries are not always repeated. Where two headings read alike, the source gives them in different places.

Key:
[1] = target: T1, GABAAR (α1β2γ2 L) in stably transfected HEK cells (Mus musculus, UniProt P22723+P62812+P63137); assay: Rapid agonist application patch-clamp recording of GABAAR responses (patcherBotPharma); assay type: cell-based; conditions: rapid application of 1 mM GABA for 1 sec
T1 construct: expressed in transfected cells; host or cells: HEK 293 cells
Protocol: (§1) Recordings are from a lifted whole cell (left) and an outside-out patch using a 4 MΩ electrode (right), at −60 mV in 0 mM Mg^2+. […] Recordings are from a lifted whole cell (left, 1 s application) and an outside-out patch (right, 5 ms application).
(§2) cDNAs for mouse Gabra1, Gabrb2, and the long form of Gabrg2 were subcloned into the pAC156 plasmid, a generous gift from Albert Cheng. The cDNAs were driven by an EF1alpha promoter. A PGK promoter-driven puromycin resistance cassette was also present in pAC156; both cassettes were flanked by piggybac transposon arms. All three plasmids were co-transfected with the mPB piggybac transposase into HEK 293 cells, selected by puromycin, and sorted into single cells. Clones were assayed for Gabra1, Gabrb2, and Gabrg2 expression by immunofluorescence, and one clone was expanded for further study and use in this description herein. Trypsin was used to dissociate the cells and plated on the same coverslips, as mentioned above, 24-72 hours before experimentation (shorter time and less PDL for lifted cell, and the inverse for excised patches).
(§3) Whole-cell voltage-clamp recordings were performed with thin-walled borosilicate glass electrodes (3-6 MΩ, TW150E-4, World Precision Instruments) filled with solution containing (in mM) 110 Cs-gluconate, 30 CsCl, 5 HEPES, 4 NaCl, 0.5 CaCl2, 2 MgCl2, 5 BAPTA, 2 NaATP, 0.3 NaGTP (pH 7.35). The extracellular recording solution contained (in mM) 150 NaCl, 10 HEPES, 3 KCl, 0.5 CaCl2, 1 MgCl2, and 0.01 EDTA (pH 7.4). Whole cell recording from primary cortical neurons (examples showing alternative experiment paradigm in the supplemental) were obtained utilizing an internal solution, containing (in mM) 115 K-gluconate, 20 KCl, 10 HEPES, 2 Mg2ATP, 0.3 NaGTP, and 10 Na2Phosphocreatine (pH 7.35), and external solution stated above but with 1 mM CaCl2. The electrode cleaning solution (2% Tergazyme in water) was made fresh daily. Cleaned electrodes were washed in appropriate internal solution. All solutions were filtered (0.45 μm or 0.22 μm). Responses were recorded using a Multiclamp 700B (Molecular Devices), filtered at 10 kHz (−3 dB), and digitized at 20 kHz.
(§4) Whole-cell rapid solution exchange experiments were analyzed using custom algorithms (Matlab, Mathworks). The desensitization and deactivation time courses were fitted by exponential functions based on receptor type. For NMDAR desensitization and GABAAR deactivation, they were fit by one exponential function,
In this experimental run, the patcherBotPharma was programmed to collect four-phase recordings. During each phase, five technical replicate sweeps were collected, a 10 sec sweep with agonist applied for 0.5 sec. Following each set of recordings, the patch was blown off with high pressure and the open-tip exchange time was determined to validate the electrode positioning.

[2] = target: T2, GABAAR in stably expressing HEK cells (Mus musculus, UniProt P22723+P62812+P63137); assay: cell-based
T2 construct: expressed in transfected cells; host or cells: HEK 293 cells
From the text: FIGS. 5A through 5D provides various steps system 500 can perform to achieve a time-constant concentration response of deactivation of a cell receptor exposed to a drug. […] FIGS. 5A through 5D the individual steps in a flowchart illustrating the patcherBotPharma operation, timing, and success rate. After the one-time calibration and cell selection step 502, system 500 loops through and serially records from the selected cells in steps 504 through 514. Quality control measures are in place at steps 506, 508a, 508b, and 510 to terminate the current experiment and continue to the next iteration, as shown in FIG. 5A. System 500 can perform calibration and cell selection 502 manually such that the user selects one or more cells within a biological sample. In some instances, calibration and cell selection 502 can be performed automatically. For instance, calibration can be pre-programed and stored in memory 66 of controller 200. Alternatively, or in addition thereto, calibration can be automatically sensed by a combination of the manipulator assembly 120 and automated control of a microscope.
After quality control measures verify an appropriate seal between the pipette tip 110 and the cell target, system 500 can initiate the experimental protocol at step 512. […] Each phase of each experiment would start with the valves changing to the next set to be tested, with a wait step to allow for the solutions to be primed, followed by the collection of 10 replicates of the intended jump protocol.
as §2, §3
Whole-cell rapid solution exchange experiments were analyzed using custom algorithms (Matlab, Mathworks). The desensitization and deactivation time courses were fitted by exponential functions based on receptor type.

[3] = target: T3, NMDAR (GluN1/GluN2A) in transiently transfected HEK cells (Rattus norvegicus, UniProt P35439+Q00959); assay: Rapid agonist application patch-clamp recording of NMDAR responses (patcherBotPharma); assay type: cell-based; conditions: rapid application of 1 mM Glutamate for 1 sec; −60 mV
T3 construct: expressed in transfected cells; host or cells: HEK-293 cells (CRL 1573, ATCC); calcium phosphate transient transfection with GFP co-transfected
Protocol: as §1
HEK-293 cells (CRL 1573, ATCC; hereafter HEK cells) and a stable GABAAR-expressing cell line were cultured in DMEM (Cat #10566016, ThermoFisher Scientific) supplemented with 10% fetal bovine serum (FBS), 10 U/ml penicillin, and 10 lag/ml streptomycin and maintained at 5% CO2 in a 37° C. incubator. For use on the electrophysiology rig, heterologous cells were plated on poly-D-Lysine (PDL) coated glass coverslips (0.1-0.5 mg/mL, Warner Instruments). Transiently transfected recombinant receptors were expressed from complementary DNA (cDNA) encoding rat GluN1-1a (hereafter GluN1, U08261) and GluN2A (D13211). Calcium phosphate was used to transiently transfect HEK cells in a 24-well plate with 500 ng of cDNA at a ratio of 1:1:5 (GluN1:GluN2A:GFP). Four hours after transfection, NMDAR antagonists D,L-2amino-5-phosphonovalerate (200 μM, DL-APV) and 7-chlorokynurenic acid (200 μM) were added to the culture medium to decrease the cytotoxic effect of NMDAR expression.
as §3, §4
A series of pharmacology experiments were performed on GABAAR and NMDARs where rapid agonist application was applied to excised outside-out patches to assess patcherBotPharma performance on the minimum processes required in an experiment, described in more detail in Table 1).

[4] = target: T3, NMDAR (GluN1/GluN2A) in transiently transfected HEK cells; assay: as above; assay type: cell-based; conditions: rapid application of 1 mM Glutamate for 1 sec; −40 mV
[5] = 1 mM GABA for 0.5 sec, propofol-free GABA Control, concentration set 1
[6] = 1 mM GABA for 0.5 sec, propofol-free GABA Control, concentration set 2
[7] = 0.5 μM PRO, 1 mM GABA for 0.5 sec, set 1
[8] = 1 μM PRO, 1 mM GABA for 0.5 sec, set 2
[9] = 2 μM PRO, 1 mM GABA for 0.5 sec, set 1
[10] = 5 μM PRO, 1 mM GABA for 0.5 sec, set 2
[11] = 10 μM PRO, 1 mM GABA for 0.5 sec, set 1
[12] = 20 μM PRO, 1 mM GABA for 0.5 sec, set 2
[13] = 50 μM PRO, 1 mM GABA for 0.5 sec, set 1
[14] = 100 μM PRO, 1 mM GABA for 0.5 sec, set 2

T2 sequence (P62812 28-455): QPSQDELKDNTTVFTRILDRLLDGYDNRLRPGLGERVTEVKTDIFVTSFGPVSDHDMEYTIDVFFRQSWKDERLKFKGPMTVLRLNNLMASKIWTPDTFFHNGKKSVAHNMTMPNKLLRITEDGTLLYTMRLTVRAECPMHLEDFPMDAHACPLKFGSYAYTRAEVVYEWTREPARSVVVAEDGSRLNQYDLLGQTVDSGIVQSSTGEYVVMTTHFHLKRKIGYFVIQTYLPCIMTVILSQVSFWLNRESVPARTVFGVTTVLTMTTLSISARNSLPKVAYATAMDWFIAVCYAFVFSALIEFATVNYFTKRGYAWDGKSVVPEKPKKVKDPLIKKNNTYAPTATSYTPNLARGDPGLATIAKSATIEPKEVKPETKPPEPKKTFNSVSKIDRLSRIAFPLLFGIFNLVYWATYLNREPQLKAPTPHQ
T2 sequence (P63137 25-512 limits assumed): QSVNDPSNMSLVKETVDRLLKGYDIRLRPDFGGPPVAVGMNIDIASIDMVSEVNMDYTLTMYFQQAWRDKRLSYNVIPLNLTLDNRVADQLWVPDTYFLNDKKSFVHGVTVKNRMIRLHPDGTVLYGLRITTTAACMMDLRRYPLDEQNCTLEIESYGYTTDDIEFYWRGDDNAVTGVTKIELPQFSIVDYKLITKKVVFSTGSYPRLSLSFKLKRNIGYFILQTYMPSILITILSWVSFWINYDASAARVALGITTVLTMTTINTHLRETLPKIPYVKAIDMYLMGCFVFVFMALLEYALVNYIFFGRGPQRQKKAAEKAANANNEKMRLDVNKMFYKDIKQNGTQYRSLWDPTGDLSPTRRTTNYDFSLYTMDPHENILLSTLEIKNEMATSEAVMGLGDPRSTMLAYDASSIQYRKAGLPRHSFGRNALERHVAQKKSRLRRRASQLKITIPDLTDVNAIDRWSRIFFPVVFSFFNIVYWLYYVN
T2 sequence (P22723 39-474): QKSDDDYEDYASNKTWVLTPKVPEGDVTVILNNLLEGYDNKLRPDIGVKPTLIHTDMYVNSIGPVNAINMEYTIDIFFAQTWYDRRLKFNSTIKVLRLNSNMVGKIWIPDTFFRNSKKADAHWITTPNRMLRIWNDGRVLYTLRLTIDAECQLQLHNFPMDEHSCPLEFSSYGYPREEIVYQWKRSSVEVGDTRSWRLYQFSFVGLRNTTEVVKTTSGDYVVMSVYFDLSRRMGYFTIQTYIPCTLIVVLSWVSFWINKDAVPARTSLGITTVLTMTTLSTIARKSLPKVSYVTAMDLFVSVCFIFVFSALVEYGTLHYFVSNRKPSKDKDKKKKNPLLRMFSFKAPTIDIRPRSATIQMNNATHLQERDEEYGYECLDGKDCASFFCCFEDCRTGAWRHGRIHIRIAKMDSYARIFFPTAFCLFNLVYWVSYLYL
T1 sequence (P62812 28-455): as the sequence (P62812 28-455) above
T1 sequence (P63137 25-512 limits assumed): as the sequence (P63137 25-512 limits assumed) above
T1 sequence (P22723 39-474): as the sequence (P22723 39-474) above
T3 sequence (Q00959 23-1464, other chains not shown): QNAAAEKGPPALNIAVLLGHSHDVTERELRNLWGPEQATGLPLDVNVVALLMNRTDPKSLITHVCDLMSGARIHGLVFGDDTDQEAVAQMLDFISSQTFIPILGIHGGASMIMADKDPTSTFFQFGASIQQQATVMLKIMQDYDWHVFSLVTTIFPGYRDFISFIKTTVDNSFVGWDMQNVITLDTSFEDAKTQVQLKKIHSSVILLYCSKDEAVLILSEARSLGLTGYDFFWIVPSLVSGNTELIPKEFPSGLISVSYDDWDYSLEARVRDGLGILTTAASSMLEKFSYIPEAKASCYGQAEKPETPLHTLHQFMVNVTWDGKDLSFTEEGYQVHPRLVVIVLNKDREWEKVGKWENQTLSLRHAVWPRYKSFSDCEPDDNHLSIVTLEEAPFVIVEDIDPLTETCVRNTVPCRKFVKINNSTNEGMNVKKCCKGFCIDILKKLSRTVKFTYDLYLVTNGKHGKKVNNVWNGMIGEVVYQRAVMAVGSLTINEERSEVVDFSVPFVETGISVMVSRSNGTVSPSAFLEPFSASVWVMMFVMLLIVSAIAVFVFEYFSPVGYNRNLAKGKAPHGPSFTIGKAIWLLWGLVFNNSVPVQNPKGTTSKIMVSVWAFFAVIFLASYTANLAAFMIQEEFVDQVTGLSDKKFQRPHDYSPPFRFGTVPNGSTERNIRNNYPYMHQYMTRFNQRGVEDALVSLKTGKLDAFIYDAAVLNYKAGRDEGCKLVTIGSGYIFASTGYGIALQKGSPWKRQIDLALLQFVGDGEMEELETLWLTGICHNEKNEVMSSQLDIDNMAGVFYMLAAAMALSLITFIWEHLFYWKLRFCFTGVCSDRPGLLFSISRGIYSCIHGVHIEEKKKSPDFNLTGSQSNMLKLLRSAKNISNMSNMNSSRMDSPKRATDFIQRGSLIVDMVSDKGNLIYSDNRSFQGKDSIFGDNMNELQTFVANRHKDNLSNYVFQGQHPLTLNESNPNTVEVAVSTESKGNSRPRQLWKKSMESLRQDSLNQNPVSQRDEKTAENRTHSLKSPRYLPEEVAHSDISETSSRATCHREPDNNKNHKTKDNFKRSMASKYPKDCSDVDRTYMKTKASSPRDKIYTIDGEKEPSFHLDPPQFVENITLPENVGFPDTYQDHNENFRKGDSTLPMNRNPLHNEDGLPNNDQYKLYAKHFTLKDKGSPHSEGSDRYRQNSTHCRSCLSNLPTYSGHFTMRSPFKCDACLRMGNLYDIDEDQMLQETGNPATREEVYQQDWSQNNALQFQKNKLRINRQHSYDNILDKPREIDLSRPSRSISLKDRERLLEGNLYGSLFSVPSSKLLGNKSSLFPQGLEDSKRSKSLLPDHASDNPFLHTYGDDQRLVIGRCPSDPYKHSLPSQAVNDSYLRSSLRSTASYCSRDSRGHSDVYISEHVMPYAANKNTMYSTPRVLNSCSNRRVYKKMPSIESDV

NCCCC(=O)O [GABA]
Deactivation Tau ([1]; −40 mV): 216 ± 29 ms | Desensitization Extent (SS/Peak %) ([1]; −40 mV): 26.4 ± 1.8% | Desensitization Tau ([1]; −40 mV): 681 ± 130 ms | Response Peak Amplitude ([1]; −40 mV): 586 ± 150 pA | Response Steady State Amplitude ([1]; −40 mV): 170 ± 54 pA | Deactivation Tau ([1]; −60 mV): 133 ± 6 ms | Desensitization Extent (SS/Peak %) ([1]; −60 mV): 24.8 ± 1.1% | Desensitization Tau ([1]; −60 mV): 965 ± 298 ms | Response Peak Amplitude ([1]; −60 mV): 173 ± 48 pA | Deactivation Tau [2, 5]: 129 ± 11 ms | Desensitization Extent (SS/Peak %) [2, 5]: 39.3 ± 2.0% | Response Peak Amplitude [2, 5]: 133 ± 36 pA | Response Steady State Amplitude [2, 5]: 51.1 ± 12.3 pA | Deactivation Tau [2, 6]: 130 ± 27 ms | Desensitization Extent (SS/Peak %) [2, 6]: 31.8 ± 7.7% | Response Peak Amplitude [2, 6]: 93.6 ± 6.8 pA | Response Steady State Amplitude [2, 6]: 30.5 ± 8.1 pA

N[C@@H](CCC(=O)O)C(=O)O [Glutamate, glutamate]
Deactivation Tau [3]: 81.3 ± 18.4 ms | Desensitization Extent (SS/Peak %) [3]: 54.8 ± 6.9% | Desensitization Tau [3]: 984 ± 192 ms | Response Peak Amplitude [3]: 326 ± 180 pA | Response Steady State Amplitude [3]: 215 ± 139 pA | Deactivation Tau [4]: 71.9 ± 11.0 ms | Desensitization Extent (SS/Peak %) [4]: 34.2 ± 6.4% | Desensitization Tau [4]: 388 ± 75 ms | Response Peak Amplitude [4]: 271 ± 104 pA | Response Steady State Amplitude [4]: 130 ± 68 pA

CC(C)c1cccc(C(C)C)c1O [propofol]
Deactivation Tau [2]: 143 ± 25 ms and 129 ± 12 ms | Desensitization Extent (SS/Peak %) [2]: 41.8 ± 1.7% and 25.2 ± 13.5% | EC50 [2]: 11.8 ± 4.6 µM | Deactivation Tau [2, 7]: 116 ± 13 ms | Desensitization Extent (SS/Peak %) [2, 7]: 39.6 ± 1.3% | Response Peak Amplitude [2, 7]: 100 ± 20 pA | Response Steady State Amplitude [2, 7]: 40.4 ± 8.9 pA | Deactivation Tau [2, 8]: 110 ± 15 ms | Desensitization Extent (SS/Peak %) [2, 8]: 34.9 ± 6.7% | Response Peak Amplitude [2, 8]: 72.2 ± 18.0 pA | Response Steady State Amplitude [2, 8]: 24.2 ± 6.6 pA | Deactivation Tau [2, 9]: 128 ± 13 ms | Desensitization Extent (SS/Peak %) [2, 9]: 40.0 ± 1.7% | Response Peak Amplitude [2, 9]: 109 ± 32 pA | Response Steady State Amplitude [2, 9]: 45.6 ± 14.9 pA | Deactivation Tau [2, 10]: 198 ± 29 ms | Desensitization Extent (SS/Peak %) [2, 10]: 30.0 ± 5.1% | Response Peak Amplitude [2, 10]: 37.8 ± 9.1 pA | Response Steady State Amplitude [2, 10]: 11.1 ± 2.4 pA | Deactivation Tau [2, 11]: 208 ± 20 ms | Desensitization Extent (SS/Peak %) [2, 11]: 43.1 ± 2.2% | Response Peak Amplitude [2, 11]: 96.0 ± 25.2 pA | Response Steady State Amplitude [2, 11]: 42.1 ± 11.6 pA | Deactivation Tau [2, 12]: 328 ± 53 ms | Desensitization Extent (SS/Peak %) [2, 12]: 25.2 ± 6.6% | Response Peak Amplitude [2, 12]: 21.5 ± 4.6 pA | Response Steady State Amplitude [2, 12]: 6.1 ± 2.2 pA | Deactivation Tau [2, 13]: 331 ± 21 ms | Desensitization Extent (SS/Peak %) [2, 13]: 33.8 ± 2.7% | Response Peak Amplitude [2, 13]: 63.9 ± 17.8 pA | Response Steady State Amplitude [2, 13]: 23.5 ± 7.4 pA | Deactivation Tau [2, 14]: 415 ± 226 ms | Response Peak Amplitude [2, 14]: 8.9 ± 1.2 pA | Response Steady State Amplitude [2, 14]: 5.8 ± 7.5 pA
